A short description of data set [1]: Pharmacokinetic study in rats after oral administration of M. chamomilla extract (HPLC-UV of plasma). In kind it is in vivo, Male Sprague-Dawley rats. Particulars: oral M. chamomilla extract (quercetin 8.51 mg/kg, luteolin 56.49 mg/kg, apigenin 13.82 mg/kg), mean ± SD; for AUC(0-inf) / AUC(0-t) / Cmax / Tmax / half-life: male, Sprague-Dawley, rat; for AUC(0-inf) / T1/2, elimination half-life: n = 6; for AUC(0-t): n = 6, read-out: AUC0–12; for Cmax: n = 6, read-out: Cmax, maximum plasma concentration; for Tmax: noncompartmental, n = 6, read-out: Tmax, time to reach the maximum plasma concentration; for half-life: po, n = 6, read-out: T1/2, elimination half-life (converted). As to the method:
All analyses were performed on a Shimadzu HPLC system, equipped with LC-20AT pump, a Shimadzu SCL-10A system controller, and a SPD-20A DAD-UV detector. The HPLC analysis was performed on an Agilent Eclipse XDB-C18 column (250 mm × 4.6 mm, 5 μm) with a mobile phase consisting of methanol and 0.2% phosphoric acid (50 : 50, v/v) with a constant rate of 1.0 ml/min. The injection volume was 10 μl and the column temperature was set at 25°C. The wavelength was set at 350 nm for quantitative analysis; the proportion of components in the mobile phase was optimized to obtain a well separation of quercetin, luteolin, apigenin, and kaempferol (IS).
An aliquot of 100 μL rat plasma was transferred to a 1.5 mL plastic tube to which was added 10 μL IS (22.52 μg/ml) for processing. After being vortex-mixed for 30 seconds, the plasma sample was then extracted with 800 μl of ethyl acetate and centrifuged at 18000g for 10 min, where ethyl acetate acted as a deproteinization-extraction agent. The procedure of extraction was performed two times. The organic layer was dried at 40°C under nitrogen stream. The residue was reconstituted in 100 μL of methanol solution, vortexed for 1 min, and centrifuged at 18000g for 10 min. The supernatant transferred to a glass insert, and 10 μL of the sample was injected into the HPLC column for analysis. The method of sample preparation was also applied for determination of accuracy, precision, and recovery.
Male Sprague-Dawley rats (body weight 160 ± 20 g) were purchased from Beijing Vital River Laboratory Animal Technology (Beijing, China). Rats were housed in a temperature- and humidity-controlled environment (25°C, 65% RH) and maintained on a 12-hour light/dark cycle for 3 days with free access to food and water before starting the experiment. The animal experiments were performed in accordance with the principles of the International Guide for the Care and Use of Laboratory Animals and were approved by the Committee on Animal Care and Usage of the Beijing University of Chinese Medicine (number SYXK 2011-0024).
The extracts of M. chamomilla (quercetin was 8.51 mg/kg, luteolin was 56.49 mg/kg, and apigenin was 13.82 mg/kg) freshly prepared in 0.5% CMC-Na solution were orally administered to six rats. Blood samples (0.5 mL) were collected from the ocular fundus veins of rats before administration and after 10, 20, 30, and 45 min and 1, 1.5, 2, 4, 6, 8, and 12 h after oral administration of M. chamomilla extract. The plasma was immediately centrifuged at 3200g for 10 min to separate out plasma and then stored frozen at −20°C until analysis.
The pharmacokinetic parameters of quercetin, luteolin, and apigenin were calculated by Kinetica 4.4 software (Thermo Scientific, USA). Noncompartmental analysis was used to determine standard pharmacokinetic parameters of analytes. All the results were expressed as means ± standard deviation (SD) of six replicates.

Data set [2] can be described thus: Stability of the analytes in rat plasma (QC samples under different storage conditions). Format: in vitro ADME. Particulars: for Stability in plasma (in words): plasma stored at 20°C for 24 h, −20°C for 30 days, and after three freeze-thaw cycles, low, medium, high concentrations, stable = 85–115% of initial; for Freeze-thaw stability, found conc. / Short-term stability, found conc. / Long-term stability, found conc.: rat plasma, n = 6; for Freeze-thaw stability, found conc.: 3 freeze-thaw cycles; for Short-term stability, found conc.: 24 h at room temperature; for Long-term stability, found conc.: 30 days at −20°C. As to the method:
QC samples were prepared in the same way as the calibration samples, representing three different level concentrations (low, medium, and high) of quercetin in plasma at 0.57, 2.84, and 9.09 μg/ml, luteolin at 0.56, 2.80, and 8.96 μg/ml, and apigenin at 0.53, 2.65, and 8.48 μg/ml, respectively. The stability of the analytes in plasma was investigated by determining QC plasma samples of the three concentration levels under different storage conditions: 24 h at room temperature, three freeze (−20°C) and thaw (room temperature) cycles, stored at −20°C for 30 days. They were considered stable when 85–115% of the initial concentrations were got. All stability testing QC samples were determined by using the calibration curve of freshly prepared standard samples.

[3] abbreviates: high QC (spiked 9.09 quercetin, 8.96 luteolin, 8.48 apigenin μg/ml).
The mark [4] stands for this setting: low QC (spiked 0.57 quercetin, 0.56 luteolin, 0.53 apigenin μg/ml).
[5] abbreviates: medium QC (spiked 2.84 quercetin, 2.80 luteolin, 2.65 apigenin μg/ml).

`O=c1cc(-c2ccc(O)cc2)oc2cc(O)cc(O)c12` [Apigenin, apigenin]: in data set [1], the AUC(0-inf) amounted to 5030 ± 1720 ng·h/mL, the AUC(0-t) was determined as 2910 ± 740 ng·h/mL, the Cmax is 420 ± 110 ng/mL and the Tmax is roughly 0.51 h. In data set [1], the half-life is roughly 8.82 h and the “T1/2, elimination half-life” value was 8.82 ± 4.15 h. Moreover, in data set [2], the “Stability in plasma (in words)” value is reported as “stable”. Also, in data set [2] (setting [3]), the “Freeze-thaw stability, found conc.” value is 7.87 ± 0.50 µg/mL; the “Short-term stability, found conc.” value worked out at 8.31 ± 0.72 µg/mL; the “Long-term stability, found conc.” value turned out to be 8.27 ± 0.62 µg/mL. Besides, in data set [2] (setting [4]), the “Freeze-thaw stability, found conc.” value is 0.48 ± 0.02 µg/mL; the “Short-term stability, found conc.” value is 0.50 ± 0.04 µg/mL; the “Long-term stability, found conc.” value is 0.46 ± 0.04 µg/mL. Besides, in data set [2] (setting [5]), the “Freeze-thaw stability, found conc.” value was found to be 2.60 ± 0.14 µg/mL; the “Short-term stability, found conc.” value is 2.64 ± 0.16 µg/mL; the “Long-term stability, found conc.” value was 2.61 ± 0.13 µg/mL.
For `O=c1cc(-c2ccc(O)c(O)c2)oc2cc(O)cc(O)c12` [Luteolin, luteolin], in data set [1], the AUC(0-inf) came to 19900 ± 5060 ng·h/mL, the AUC(0-t) amounted to 16000 ± 2380 ng·h/mL, the Cmax was found to be 3040 ± 600 ng/mL and the Tmax was roughly 0.42 h. Moreover, in data set [1], the half-life was roughly 4.43 h and the “T1/2, elimination half-life” value stood at 4.43 ± 1.84 h. Besides, in data set [2], the “Stability in plasma (in words)” value is reported as “stable”. In data set [2] (setting [3]), the “Freeze-thaw stability, found conc.” value turned out to be 8.56 ± 0.54 µg/mL; the “Short-term stability, found conc.” value came to 8.96 ± 0.76 µg/mL; the “Long-term stability, found conc.” value was determined as 8.99 ± 0.65 µg/mL. Further, in data set [2] (setting [4]), the “Freeze-thaw stability, found conc.” value was determined as 0.62 ± 0.02 µg/mL; the “Short-term stability, found conc.” value worked out at 0.62 ± 0.01 µg/mL; the “Long-term stability, found conc.” value was found to be 0.61 ± 0.03 µg/mL. Moreover, in data set [2] (setting [5]), the “Freeze-thaw stability, found conc.” value was found to be 2.91 ± 0.15 µg/mL; the “Short-term stability, found conc.” value was determined as 2.94 ± 0.14 µg/mL; the “Long-term stability, found conc.” value turned out to be 2.92 ± 0.15 µg/mL.
`O=c1c(O)c(-c2ccc(O)c(O)c2)oc2cc(O)cc(O)c12` [Quercetin, quercetin]: in data set [1], the AUC(0-inf) amounted to 3880 ± 1000 ng·h/mL, the AUC(0-t) was determined as 1790 ± 290 ng·h/mL, the Cmax is 290 ± 60 ng/mL and the Tmax was roughly 0.79 h. Besides, the half-life in data set [1] is roughly 13.6 h. Further, the “Stability in plasma (in words)” value in data set [2] is reported as “stable”. In data set [2] (setting [3]), the “Freeze-thaw stability, found conc.” value amounted to 9.24 ± 0.55 µg/mL; the “Short-term stability, found conc.” value amounted to 9.15 ± 0.69 µg/mL; the “Long-term stability, found conc.” value turned out to be 9.59 ± 0.53 µg/mL. For the same compound, in data set [2] (setting [4]), the “Freeze-thaw stability, found conc.” value was determined as 0.63 ± 0.01 µg/mL; the “Short-term stability, found conc.” value stood at 0.63 ± 0.01 µg/mL; the “Long-term stability, found conc.” value was 0.62 ± 0.03 µg/mL. Also, in data set [2] (setting [5]), the “Freeze-thaw stability, found conc.” value was found to be 3.09 ± 0.09 µg/mL; the “Short-term stability, found conc.” value was 3.09 ± 0.18 µg/mL; the “Long-term stability, found conc.” value worked out at 3.10 ± 0.16 µg/mL.

The record behind these values is PMC5360941, “Simultaneous Determination and Pharmacokinetic Study of Quercetin, Luteolin, and Apigenin in Rat Plasma after Oral Administration of Matricaria chamomilla L. Extract by HPLC-UV” (Evidence-based Complementary and Alternative Medicine : eCAM, 2017).
